Reference: US20060293315A1, “Intermediates of novel heterocyclic compounds having antibacterial activity and process for their preparation” (Dr. Reddy's Laboratories Ltd., priority 2001, published 2006)
In brackets after ≈: the same amount, converted by molar mass. Blank lines part the entries; values can stand above or below the compound they belong to.

Assays:
[1] = test system: H. influenzae 433 (Haemophilus influenzae ATCC 49766); experiment: MIC by broth microdilution, H. influenzae 433; assay type: cell-based; conditions: ATCC49766, DRCC 433, broth microdilution in MHB, read-out: Antimicrobial Screening (MIC) H. influenzae 433
Description: (§1) Minimum Inhibiton Concentrations (MICs) were determined by broth microdilution technique as per the guidelines prescribed in the fifth edition of Approved Standards, NCCLS document M7-A5 Vol 20-No 2, 2000 Villinova, Pa.
(§2) Initial stock solution of the test compound was prepared in DMSO. Subsequent two fold dilutions were carried out in sterile Mueller Hinton Broth (Difco) (MHB).
(§3) Frozen cultures stocks were inoculated into 50 ml sterile MHB in 250 ml Erlyn Meyer flasks.
(§4) Composition of MHB is as follows:
(§5) Flasks were incubated for 4 to 5 h at 35° C. on a rotary shaker at 150 rpm. Inoculum was prepared by diluting the culture in sterile MHB to obtain a turbidity of 0.5 McFarland standard. This corresponds to 1-2×10^8 CFU/ml. The stock was further diluted in sterile broth to obtain 1-2×10^6 CFU/ml. 50 μl of the above diluted inoculum was added from 1-10 wells. The plates were incubated overnight at 37° C.

[2] = test system: Mycobacterium MTCC 006; experiment: MIC by broth microdilution, Mycobacterium MTCC 006; assay type: cell-based; conditions: MTCC006, broth microdilution in MHB, read-out: Antimicrobial Screening (MIC) Mycobacterium MTCC 006
Description: as §1, §2, §3, §4, §5

[3] = test system: H. influenzae 432 (Haemophilus influenzae ATCC 49247); experiment: MIC by broth microdilution, H. influenzae 432; assay type: cell-based; conditions: ATCC49247, DRCC 432, broth microdilution in MHB, read-out: Antimicrobial Screening (MIC) H. influenzae 432
Description: as §1, §2, §3, §4, §5

[4] = test system: Staphylococcus aureus 019 MRSA (ATCC 33591); experiment: MIC by broth microdilution, Staphylococcus aureus 019 MRSA; assay type: cell-based; conditions: DRCC 019, MRSA, broth microdilution in MHB, read-out: Antimicrobial Screening (MIC) Staphylococcus aureus 019 MRSA
Description: as §1, §2, §3, §4, §5

[5] = test system: Enterococcus sp 153 R (Enterococcus faecalis NCTC 12201); experiment: MIC by broth microdilution, Enterococcus sp 153 R; assay type: cell-based; conditions: NCTC12201, DRCC 153, R, broth microdilution in MHB, read-out: Antimicrobial Screening (MIC) Enterococcus sp 153 R
Description: as §1, §2, §3, §4, §5

[6] = test system: Enterococcus sp 154 R (Enterococcus faecium NCTC 12202); experiment: MIC by broth microdilution, Enterococcus sp 154 R; assay type: cell-based; conditions: NCTC12202, DRCC 154, R, broth microdilution in MHB, read-out: Antimicrobial Screening (MIC) Enterococcus sp 154 R
Description: as §1, §2, §3, §4, §5

[7] = test system: Salmorella TA 97; experiment: MIC by broth microdilution, Salmorella TA 97; assay type: cell-based; conditions: read-out: Antimicrobial Screening (MIC) Salmorella TA 97
Description: as §1, §2, §3, §4, §5

[8] = test system: Staphylococcus aureus 213 Smith S (ATCC 49951); experiment: MIC by broth microdilution, Staphylococcus aureus 213 Smith S; assay type: cell-based; conditions: ATCC49951, DRCC 213, Smith S, broth microdilution in MHB, read-out: Antimicrobial Screening (MIC) Staphylococcus aureus 213 Smith S
Description: as §1, §2, §3, §4, §5

[9] = test system: H. influenzae 529 (Haemophilus influenzae ATCC 9006); experiment: MIC by broth microdilution, H. influenzae 529; assay type: cell-based; conditions: ATCC9006, DRCC 529, broth microdilution in MHB, read-out: Antimicrobial Screening (MIC) H. influenzae 529
Description: as §1, §2, §3, §4, §5

[10] = test system: M. catarrhalis 300 (Moraxella catarrhalis ATCC 25238); experiment: MIC by broth microdilution, M. catarrhalis 300; assay type: cell-based; conditions: ATCC25238, DRCC 300, broth microdilution in MHB, read-out: Antimicrobial Screening (MIC) M. catarrhalis 300
Description: as §1, §2, §3, §4, §5

[11] = test system: Staphylococcus aureus 035 S (ATCC 29213); experiment: MIC by broth microdilution, Staphylococcus aureus 035 S; assay type: cell-based; conditions: ATCC29213, DRCC 035, S, broth microdilution in MHB, read-out: Antimicrobial Screening (MIC) Staphylococcus aureus 035 S
Description: as §1, §2, §3, §4, §5

[12] = test system: Enterococcus sp 034 S (Enterococcus faecalis ATCC 29212); experiment: MIC by broth microdilution, Enterococcus sp 034 S; assay type: cell-based; conditions: ATCC29212, DRCC 034, S, broth microdilution in MHB, read-out: Antimicrobial Screening (MIC) Enterococcus sp 034 S
Description: as §1, §2, §3, §4, §5

Compound: COC(=S)NC[C@H]1CN(c2cc(F)c(N3CC(=O)N(C)C3)c(F)c2)C(=O)O1 [Example 164]
MIC [1]: 16 µg/mL (≈ 40 µM) | MIC [2]: 4 µg/mL (≈ 9.99 µM) | MIC [3]: 8 µg/mL (≈ 20 µM) | MIC [4]: 0.25 µg/mL (≈ 0.624 µM) | MIC [5]: 0.5 µg/mL (≈ 1.25 µM) | MIC [6]: 0.5 µg/mL (≈ 1.25 µM) | MIC [7]: 16 µg/mL (≈ 40 µM) | MIC [8]: 0.5 µg/mL (≈ 1.25 µM) | MIC [9]: 16 µg/mL (≈ 40 µM) | MIC [10]: 8 µg/mL (≈ 20 µM) | MIC [11]: 0.5 µg/mL (≈ 1.25 µM) | MIC [12]: 0.5 µg/mL (≈ 1.25 µM)

Compound: CC(C)OC(=S)NC[C@H]1CN(c2cc(F)c(N3CNC(=O)C3)c(F)c2)C(=O)O1 [Example 167]
MIC [1]: > 32 µg/mL | MIC [2]: 32 µg/mL (≈ 77.2 µM) | MIC [3]: > 32 µg/mL | MIC [4]: 2 µg/mL (≈ 4.83 µM) | melting point: 176 to 178 °C | MIC [5]: 4 µg/mL (≈ 9.65 µM) | MIC [6]: 8 µg/mL (≈ 19.3 µM) | MIC [7]: 32 µg/mL (≈ 77.2 µM) | MIC [8]: 2 µg/mL (≈ 4.83 µM) | MIC [9]: > 32 µg/mL | MIC [10]: > 32 µg/mL | MIC [11]: 2 µg/mL (≈ 4.83 µM) | MIC [12]: 8 µg/mL (≈ 19.3 µM)

Compound: CCOC(=S)NC[C@H]1CN(c2cc(F)c(N3CNC(=O)C3)c(F)c2)C(=O)O1 [Example 166]
MIC [1]: > 32 µg/mL | MIC [2]: 32 µg/mL (≈ 79.9 µM) | MIC [3]: > 32 µg/mL | MIC [4]: 0.5 µg/mL (≈ 1.25 µM) | melting point: 178 to 180 °C | MIC [5]: 1 µg/mL (≈ 2.5 µM) | MIC [6]: 1 µg/mL (≈ 2.5 µM) | MIC [7]: 32 µg/mL (≈ 79.9 µM) | MIC [8]: 0.5 µg/mL (≈ 1.25 µM) | MIC [9]: > 32 µg/mL | MIC [10]: 32 µg/mL (≈ 79.9 µM) | MIC [11]: 0.5 µg/mL (≈ 1.25 µM) | MIC [12]: 1 µg/mL (≈ 2.5 µM)

Compound: CCCOC(=S)NC[C@H]1CN(c2cc(F)c(N3CNC(=O)C3)c(F)c2)C(=O)O1 [Example 165]
MIC [1]: > 32 µg/mL | MIC [2]: 32 µg/mL (≈ 77.2 µM) | MIC [3]: > 32 µg/mL | MIC [4]: 1 µg/mL (≈ 2.41 µM) | melting point: 186 to 188 °C | MIC [5]: 2 µg/mL (≈ 4.83 µM) | MIC [6]: 2 µg/mL (≈ 4.83 µM) | MIC [7]: 32 µg/mL (≈ 77.2 µM) | MIC [8]: 1 µg/mL (≈ 2.41 µM) | MIC [9]: > 32 µg/mL | MIC [10]: > 32 µg/mL | MIC [11]: 1 µg/mL (≈ 2.41 µM) | MIC [12]: 2 µg/mL (≈ 4.83 µM)

Compound: COC(=S)NC[C@H]1CN(c2cc(F)c(N3CC(=O)N(CC(=O)OC(C)(C)C)C3)c(F)c2)C(=O)O1 [Example 168]
MIC [2]: 32 µg/mL (≈ 63.9 µM) | MIC [4]: 2 µg/mL (≈ 4 µM) | MIC [5]: 1 µg/mL (≈ 2 µM) | MIC [6]: 2 µg/mL (≈ 4 µM) | MIC [7]: 32 µg/mL (≈ 63.9 µM) | MIC [8]: 2 µg/mL (≈ 4 µM) | MIC [11]: 2 µg/mL (≈ 4 µM) | MIC [12]: 2 µg/mL (≈ 4 µM)

Compound: COC(=O)CN1CN(c2c(F)cc(N3C[C@H](CNC(=S)OC)OC3=O)cc2F)CC1=O [Example 169]
MIC [2]: 8 µg/mL (≈ 17.5 µM) | MIC [4]: 1 µg/mL (≈ 2.18 µM) | MIC [5]: 0.5 µg/mL (≈ 1.09 µM) | MIC [6]: 1 µg/mL (≈ 2.18 µM) | MIC [7]: 32 µg/mL (≈ 69.8 µM) | MIC [8]: 1 µg/mL (≈ 2.18 µM) | MIC [11]: 2 µg/mL (≈ 4.36 µM) | MIC [12]: 0.5 µg/mL (≈ 1.09 µM)

melting point: 176 °C
Compound: CCCOC(=S)NC[C@H]1CN(c2ccc(N3CCOC3=O)cc2)C(=O)O1 [Example 133]

melting point: 179 °C
Compound: COC(=S)NC[C@H]1CN(c2ccc(N3CCN(C)C3=S)c(F)c2)C(=O)O1 [Example 126]

melting point: 178 °C
Compound: NC(=S)NC[C@H]1CN(c2ccc(N3CCOC3=O)c(F)c2)C(=O)O1 [Example 192]

melting point: 194 °C
Compound: CC(=O)NC[C@H]1CN(c2ccc(N3CCN(c4ccc(F)cc4)C3=O)c(F)c2)C(=O)O1 [Example 96]

melting point: 184 °C
Compound: CCOC(=S)NC[C@H]1CN(c2ccc(N3CC(=O)N(Cc4ccccc4)C3)c(F)c2)C(=O)O1 [Example 180]

melting point: 153 °C
Compound: O=C1OCCN1c1ccc(N2C[C@H](CNC(=S)OC3CCCCC3)OC2=O)cc1 [Example 122]

melting point: 189 to 191 °C
Compound: NC[C@H]1CN(c2ccc(N3CCOC3=O)cc2)C(=O)O1 [Example 59]

melting point: 108 °C
Compound: CC(=S)NC[C@H]1CN(c2cc(F)c(N3CCOC3=O)c(F)c2)C(=O)O1 [Example 103]

melting point: 150 °C
Compound: C=CCOC(=S)NC[C@H]1CN(c2ccc(N3CCOC3=O)cc2)C(=O)O1 [Example 137]

melting point: 205 to 210 °C
Compound: COC(=S)NC[C@H]1CN(c2ccc(N3CNC(=O)C3)cc2)C(=O)O1 [Example 158]

melting point: 183 °C
Compound: CC(C)OC(=S)NC[C@H]1CN(c2ccc(N3CCN(C)C3=S)c(F)c2)C(=O)O1 [Example 127]

melting point: 182 °C
Compound: CC(=O)NC[C@H]1CN(c2ccc(N3CCN(c4ccccc4)C3=O)c(F)c2)C(=O)O1 [Example 95]

melting point: 175 °C
Compound: CNC(=S)NC[C@H]1CN(c2ccc(N3CCOC3=O)cc2)C(=O)O1 [Example 188]

melting point: 159 °C
Compound: O=C1OCCN1c1ccc(N2C[C@H](CNC(=S)N3CCC[C@H]3CO)OC2=O)cc1 [Example 182]

melting point: 143 °C
Compound: CCC(=O)NC[C@H]1CN(c2ccc(N3CCOC3=O)c(C(F)(F)F)c2)C(=O)O1 [Example 82]

melting point: 160 °C
Compound: CCOC(=S)NC[C@H]1CN(c2ccc(N3CCN(Cc4ccccc4)C3=O)cc2)C(=O)O1 [Example 146]

melting point: 153 °C
Compound: COC(=S)NC[C@H]1CN(c2ccc(N3CCOC3=O)cc2)C(=O)O1 [Example 131]

melting point: 157 °C
Compound: CCOC(=S)NC[C@H]1CN(c2ccc(N3CCOC3=O)c(C(F)(F)F)c2)C(=O)O1 [Example 129]

melting point: 196 °C
Compound: C=CC(=O)NC[C@H]1CN(c2ccc(N3CCOC3=O)c(F)c2)C(=O)O1 [Example 71]

melting point: 217 °C
Compound: CC(=O)NC[C@H]1CN(c2ccc(N3CCN(C)C3=O)cc2)C(=O)O1 [Example 93]

melting point: 165 °C
Compound: O=C1O[C@@H](CNC(=S)CC(F)(F)F)CN1c1ccc(N2CCOC2=O)c(F)c1 [Example 99]

melting point: 203 °C
Compound: CCC(=O)NC[C@H]1CN(c2ccc(N3CCOC3=O)c(F)c2)C(=O)O1 [Example 67]

melting point: 181 °C
Compound: O=C1OCCN1c1ccc(N2C[C@H](CNC(=S)NCc3ccccc3)OC2=O)cc1 [Example 185]

melting point: 204 °C
Compound: CC(=O)NC[C@H]1CN(c2ccc(N3CCN(Cc4ccccc4)C3=O)cc2)C(=O)O1 [Example 94]

melting point: 170 °C
Compound: COC(=S)NC[C@H]1CN(c2ccc(N3CCN(Cc4ccccc4)C3=O)cc2)C(=O)O1 [Example 145]

melting point: 146 °C
Compound: COC(=S)NC[C@H]1CN(c2ccc(N3CCOC3=O)c(C(F)(F)F)c2)C(=O)O1 [Example 128]
